Source: ChEMBL document CHEMBL1201862, “PubChem BioAssay data set” (2004)
Counter-ions that a name gives are not always drawn. The source made the active and inactive calls.

How the values were obtained:
[1] = NIH:OVCAR-3 ovarian cancer cell cytotoxicity, dose response, PAX8 inhibitor project, plate reader, dry powder samples (AID 743044); assay type: functional, cell-based
Paired box protein Pax-8 = Paired box protein Pax-8 (Homo sapiens, UniProt Q06710); test: inhibitors of PAX8-driven TPO luciferase reporter, dose response, RMG-I cells, cherry-pick (AID 687027); assay type: functional, cell-based;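 note: luciferase reporter driven by Pax8 target thyroperoxidase promoter measured by SteadyGlo luminescence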
[2] = cytotoxicity in OVCAR8 ovarian cancer cells, dose response, PAX8 project, cell-based, plate reader, dry powder samples (AID 743197); assay type: functional; conditions: OVCAR-8
[3] = IGROV1 ovarian cancer cell cytotoxicity, dose response, PAX8 inhibitor project, plate reader, dry powder samples (AID 743043); assay type: functional, cell-based; conditions: IGROV-1
[4] = A2780 ovarian cancer cell cytotoxicity, dose response, cytotoxicity control, plate reader, dry powder samples (AID 743046); assay type: functional, cell-based
[5] = T. cruzi growth inhibition in host cells, dose response, cell-based, plate reader, dry powder, set 2 (AID 652275); assay type: functional
[6] = target: T1, Carboxy-terminal domain RNA polymerase II polypeptide A small phosphatase 1 (Homo sapiens, UniProt Q9GZU7); test: inhibitors of CTDSP1, concentration-response testing, biochemical assay, absorbance-based, actives from ultra-high-throughput screening (AID 540297); assay type: functional
T1 sequence (Q9GZU7 whole entry): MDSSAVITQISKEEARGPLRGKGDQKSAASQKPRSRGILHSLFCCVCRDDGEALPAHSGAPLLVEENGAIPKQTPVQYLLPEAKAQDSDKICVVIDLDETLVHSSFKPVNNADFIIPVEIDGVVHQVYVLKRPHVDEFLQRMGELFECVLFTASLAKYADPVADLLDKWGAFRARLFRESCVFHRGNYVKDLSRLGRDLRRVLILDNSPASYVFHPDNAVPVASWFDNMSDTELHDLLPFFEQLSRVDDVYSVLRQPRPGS

[7] = cytotoxicity toward NIH3T3 fibroblasts, dose response, counter-screen, cell-based, ATP luminescence, mouse fibroblasts (AID 2010); assay type: functional;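 note: cells exposed to compound for about 90 hours before reading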
[8] = inhibitors of intracellular T. cruzi replication, confirmation, NIH3T3 host cells, beta-gal luminescence (AID 2044); assay type: functional, cell-based;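 note: intracellular parasites grown in NIH/3T3 mouse fibroblasts as host cells; luminescent beta-galactosidase reporter signal from transgenic T. cruzi replicating inside host cells; inhibitors lower the luminescence signal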
[9] = target: T2, Endoribonuclease toxin MazF (Escherichia coli K-12, UniProt P0AE70); test: fluorescent RNA oligo signal without MazF, dose response, counter-screen for MazEF activator project, biochemical, fluorescence, single-stranded RNase substrate (AID 588502); assay type: functional
T2 sequence (P0AE70 whole entry): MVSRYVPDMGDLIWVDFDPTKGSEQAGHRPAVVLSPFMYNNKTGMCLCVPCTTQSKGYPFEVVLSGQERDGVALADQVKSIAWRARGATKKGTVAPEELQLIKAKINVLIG

[10] = target: T2, Endoribonuclease toxin MazF; test: MazF toxin RNase activators, dose response, biochemical, fluorescence, single-stranded RNA substrate, uHTS hits (AID 588481); assay type: functional
INS1 = test: beta cell apoptosis inhibitors, cytokine rescue, dose response, luminescence, retest (AID 449756); assay type: functional, cell-based; conditions: Rattus norvegicus;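 note: cell death triggered by IL-1 beta plus TNF-alpha plus IFN-gamma mixture; protective hits raise ATP signal compared with cytokine alone wells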
Vero = test: cells; assay type: functional; conditions: Chlorocebus sabaeus
BJ [11] = test: cytotoxicity toward BJ-TERT fibroblasts, dose response, cell-based, RAS-independent, luminescence (AID 1933); assay type: functional; conditions: Homo sapiens
BJ [12] = test: cytotoxicity toward BJ-TERT-LT-ST fibroblasts, dose response, cell-based, RAS-independent, luminescence (AID 1935); assay type: functional; conditions: Homo sapiens;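 note: BJ fibroblasts immortalized with TERT plus LT and ST oncogenes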
BJ [13] = test: cells; assay type: functional, cell-based; conditions: Homo sapiens
BJ [14] = test: cytotoxicity toward Ras-transformed BJeLR fibroblasts, dose response, cell-based, alamar blue fluorescence, cherrypicked samples (AID 2631); assay type: functional; conditions: Homo sapiens;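 note: confirmatory dose-response assay in RAS-dependent BJ fibroblasts engineered with TERT, LT and ST, with cytotoxicity read by fluorescence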
[15] = cytotoxicity toward DRD oncogenic fibroblasts, dose response, cell-based, non-viral oncogenic, luminescence (AID 1934); assay type: functional; conditions: Homo sapiens
[16] = tested on: Streptococcus sp. 'group A'; test: growth inhibition of control SK(-) GAS strain, dose response, counter-screen for streptokinase expression inhibitor project, luminescence, kanamycin, BacTiterGlo, confirmation (AID 1900); assay type: functional, organism-based
Streptococcus = test: Group A Streptococcus viability loss, dose response, counter-screen for streptokinase expression inhibitor project, luminescence, BacTiterGlo (AID 1915); assay type: functional, organism-based;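 note: potency for reduction of bacterial viability or growth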
[17] = target: DNA dC->dU-editing enzyme APOBEC-3G (Homo sapiens, UniProt Q9HC16); assay type: functional;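 note: Dose-response counterscreen measuring inhibition of APOBEC3G DNA deaminase activity, run while confirming APOBEC3A inhibitors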
[18] = target: DNA dC->dU-editing enzyme APOBEC-3A (Homo sapiens, UniProt P31941); test: Dose Response confirmation of small molecule APOBEC3A DNA Deaminase Inhibitors via a fluorescence-based single-stranded DNA deaminase assay. [Related pubchem assays (depositor defined):AID493011, AID493024]; assay type: functional
[19] = inhibitors of SNCA 5'UTR-driven reporter translation, confirmation, H4 neuroglioma cells, luminescence (AID 1988); assay type: functional, cell-based
[20] = inhibitors of firefly luciferase expression or activity, dose response, H4 neuroglioma cells, luminescence (AID 1990); assay type: functional, cell-based
[21] = Luminescence Cell-Based Dose Response HTS to Identify Inhibitors of 5'UTR Stem-Loop Driven Prion Protein mRNA Translation in H4 Neuroglioblastoma Cells. [Related pubchem assays: 1827 (Project Summary), 1813 (Primary HTS)]; assay type: functional

Sequence of Paired box protein Pax-8 (Q06710 whole entry): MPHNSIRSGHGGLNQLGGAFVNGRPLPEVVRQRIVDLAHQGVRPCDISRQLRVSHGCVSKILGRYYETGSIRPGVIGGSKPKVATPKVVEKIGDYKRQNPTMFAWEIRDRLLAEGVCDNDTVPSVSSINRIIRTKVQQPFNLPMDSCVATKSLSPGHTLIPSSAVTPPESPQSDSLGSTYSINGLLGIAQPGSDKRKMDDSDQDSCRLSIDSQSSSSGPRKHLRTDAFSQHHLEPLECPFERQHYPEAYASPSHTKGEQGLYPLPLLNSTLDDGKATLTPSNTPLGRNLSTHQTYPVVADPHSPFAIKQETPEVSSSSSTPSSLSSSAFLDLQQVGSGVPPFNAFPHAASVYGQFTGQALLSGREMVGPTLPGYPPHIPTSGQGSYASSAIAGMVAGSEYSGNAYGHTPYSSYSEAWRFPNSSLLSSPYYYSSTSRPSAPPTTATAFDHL
Sequence of DNA dC->dU-editing enzyme APOBEC-3A (P31941 whole entry): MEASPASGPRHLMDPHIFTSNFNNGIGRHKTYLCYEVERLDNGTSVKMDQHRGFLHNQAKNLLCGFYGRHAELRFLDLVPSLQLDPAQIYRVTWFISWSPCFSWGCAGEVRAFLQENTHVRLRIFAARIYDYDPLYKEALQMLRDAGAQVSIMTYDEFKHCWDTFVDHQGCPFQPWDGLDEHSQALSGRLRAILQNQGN
Sequence of DNA dC->dU-editing enzyme APOBEC-3G (Q9HC16 whole entry): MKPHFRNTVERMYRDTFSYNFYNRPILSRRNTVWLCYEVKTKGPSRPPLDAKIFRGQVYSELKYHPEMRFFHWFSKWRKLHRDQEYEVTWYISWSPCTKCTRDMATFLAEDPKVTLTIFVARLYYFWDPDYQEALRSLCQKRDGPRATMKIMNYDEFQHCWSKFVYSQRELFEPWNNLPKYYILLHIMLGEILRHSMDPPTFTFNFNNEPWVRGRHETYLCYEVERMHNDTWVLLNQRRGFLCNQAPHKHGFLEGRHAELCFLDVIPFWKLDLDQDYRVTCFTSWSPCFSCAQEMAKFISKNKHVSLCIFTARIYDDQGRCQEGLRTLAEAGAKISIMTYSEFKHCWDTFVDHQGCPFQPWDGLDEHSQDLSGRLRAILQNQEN

Structure (SMILES): Cc1ccc(S(=O)(=O)Nc2ccc3c(c2)C(=O)N([C@H](C)CO)C[C@@H](C)[C@@H](CN(C)CC2CCCCC2)OCCCC[C@@H](C)O3)cc1
- AC50 [1]: 26.5 µM (active)
- AC50 (Paired box protein Pax-8): 5.51 µM (active)
- AC50 [2]: 40.4 µM (active)
- AC50 [3]: 38.8 µM (active)
- AC50 [4]: 38.2 µM (active)

Structure (SMILES): C[C@@H]1CN([C@H](C)CO)C(=O)c2cc(NC(=O)Nc3ccc(C(F)(F)F)cc3)ccc2O[C@@H](C)CCCCO[C@@H]1CN(C)Cc1ccc(Cl)c(Cl)c1
- AC50 [1]: 20.7 µM (active)
- AC50 (Paired box protein Pax-8): 5 µM (active)
- AC50 [2]: 29.1 µM (active)
- AC50 [4]: 39.1 µM (active)

Structure (SMILES): CC(C)N1C[C@H](C)[C@@H](CN(C)Cc2ccc(Cl)c(Cl)c2)Oc2c(cccc2-c2nnc(-c3ccncc3)o2)C1=O
- AC50 [5]: 0.0624 µM (active)

Structure (SMILES): CC(C)N1C[C@@H](CN(C)Cc2ccc(Cl)c(Cl)c2)Oc2c(NC(=O)c3ccncc3)cccc2C1=O
- AC50 [5]: 0.000485 µM (active)

Structure (SMILES): COC[C@H](C)N1C[C@H](C)[C@@H](CN(C)Cc2ccc(Oc3ccccc3)cc2)Oc2c(NC(=O)c3ccncc3)cccc2C1=O
- AC50 [5]: 0.00119 µM (active)

Structure (SMILES): Cc1cc(C(=O)N/N=C/c2ccc(-c3ccccc3Cl)o2)[nH]n1
- IC50 [6]: 11.5 µM (active)
- EC50 [7]: > 60 µM (not active)
- EC50 [8]: 1.5 µM (active)

Structure (SMILES): CN(C)Cc1c(C(=O)N/N=C/c2cccc(OCc3ccc(F)cc3)c2)nnn1-c1nonc1N
- EC50 [9]: > 99 µM (inactive)
- EC50 [10]: 45.2 µM (inactive)

Structure (SMILES): COc1ccc(C2=Nn3c(nnc3-c3ccccc3Cl)SC2)cc1OC1CCCC1
- AC50 (INS1): 42.7 µM (active)
- CC50 (Vero): 10.7 µM (active)

Structure (SMILES): Cc1cccc(NC2=NC(N)=NC(C)(C)N2)c1
- EC50 (BJ [11]): > 150 µM (not active)
- EC50 (BJ [12]): > 150 µM (not active)
- EC50 (BJ [13]): 1.26 µM (inconclusive)
- EC50 (BJ [14]): > 133 µM (inactive)
- EC50 [15]: 1.48 µM (active)
- EC50 [16]: < 0.06 µM (active)
- EC50 (Streptococcus): 0.478 µM (active)

Structure (SMILES): COc1ccc(CN2CCNCC2)c(OC)c1OC [TRIMETAZIDINE DIHYDROCHLORIDE]
- IC50 [6]: 8.85 µM (active)
- IC50 [17]: 7.19 µM (active)
- IC50 [18]: 8.26 µM (active)

Structure (SMILES): CC(C)[C@]12O[C@H]1[C@@H]1O[C@]13[C@]1(O[C@H]1C[C@H]1C4=C(CC[C@@]13C)C(=O)OC4)[C@@H]2O [TRIPTOLIDE]
- EC50 [19]: < 0.1 µM (active)
- EC50 [20]: < 0.1 µM (active)
- EC50 [21]: < 0.1 µM (active)
- EC50 (BJ [14]): < 0.104 µM (active)
